According to the supplement of paper PMC10307832:

How the values were obtained:
Experiment in all cases: relative viability (nuclei count vs DMSO), 5 days (fraction); higher = more cells survive
[1] = compound: C1=CC2=C(C=C(C(=C2N=C1)O)N=NC3=CC4=C(C=C3)C=C(C=C4)S(=O)(=O)O)S(=O)(=O)O + COc1cccc2cc(-c3nc([C@H]4CC[C@H](C(=O)O)CC4)n4ncnc(N)c34)[nH]c12 [OSI-027] (partner 0.5 µM)
Method in brief: (§1)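 Lung cancer cell lines were pin-tool dosed in 1536-well plates on the day after seeding, with either a lone drug or a fixed anchor-drug dose plus five library-drug doses (not always all listed) in √10 steps. Nuclei were counted on 4× images after 5 days. Relative viability is the ratio of treated-well to vehicle-well nuclei counts, with each value a median of duplicate plates.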

[2] = compound: C1=CC2=C(C=C(C(=C2N=C1)O)N=NC3=CC4=C(C=C3)C=C(C=C4)S(=O)(=O)O)S(=O)(=O)O + CS(=O)(=O)N1CCN(Cc2cc3nc(-c4cccc5[nH]ncc45)nc(N4CCOCC4)c3s2)CC1 [Pictilisib] (partner 1 µM)
Method in brief: as §1

[3] = compound: C1=CC2=C(C=C(C(=C2N=C1)O)N=NC3=CC4=C(C=C3)C=C(C=C4)S(=O)(=O)O)S(=O)(=O)O + C[C@]1(O)C[C@@H](c2nc(-c3ccc4ccc(-c5ccccc5)nc4c3)c3c(N)nccn32)C1 [Linsitinib] (partner 1 µM)
Method in brief: as §1

[4] = compound: C1=CC2=C(C=C(C(=C2N=C1)O)N=NC3=CC4=C(C=C3)C=C(C=C4)S(=O)(=O)O)S(=O)(=O)O + Cc1cc(Nc2cc(N3CCN(C)CC3)nc(Sc3ccc(NC(=O)C4CC4)cc3)n2)n[nH]1 [Tozasertib] (partner 0.1 µM)
Method in brief: as §1

Cell Line	relative viability ([1]; first compound 0.08 µM)	relative viability ([1]; first compound 0.253 µM)	relative viability ([1]; first compound 0.8 µM)	relative viability ([1]; first compound 2.53 µM)	relative viability ([1]; first compound 8 µM)	relative viability ([2]; first compound 0.08 µM)	relative viability ([2]; first compound 0.253 µM)	relative viability ([2]; first compound 0.8 µM)	relative viability ([2]; first compound 2.53 µM)	relative viability ([2]; first compound 8 µM)	relative viability ([3]; first compound 0.08 µM)	relative viability ([3]; first compound 0.253 µM)	relative viability ([3]; first compound 0.8 µM)	relative viability ([3]; first compound 2.53 µM)	relative viability ([3]; first compound 8 µM)	relative viability ([4]; first compound 0.08 µM)	relative viability ([4]; first compound 0.253 µM)	relative viability ([4]; first compound 0.8 µM)	relative viability ([4]; first compound 2.53 µM)	relative viability ([4]; first compound 8 µM)
201T	0.804	0.687	0.684	0.761	0.735	0.625	0.696	0.649	0.695	0.72	1.05	1.01	1	1.05	1.07	1.03	0.901	0.987	0.967	0.934
A549	–	–	–	–	–	0.522	0.449	0.545	0.509	0.322	0.7	0.515	0.617	0.645	0.576	–	–	–	–	–
A-427	0.402	0.447	0.45	0.41	0.5	0.665	0.731	0.629	0.672	0.709	1.18	1.07	1.08	1.07	1.11	0.235	0.216	0.207	0.239	0.252
ABC-1	0.435	0.336	0.463	0.499	0.64	0.629	0.63	0.579	0.67	0.643	0.8	0.632	0.86	0.688	0.738	0.155	0.199	0.176	0.167	0.132
BEN	0.289	0.303	0.244	0.297	0.292	0.617	0.564	0.493	0.667	0.48	1.11	0.887	0.799	0.94	0.827	0.55	0.535	0.572	0.548	0.47
CAL-12T	0.592	0.585	0.577	0.819	0.831	0.351	0.409	0.366	0.36	0.323	0.938	0.753	0.751	0.773	0.889	0.29	0.34	0.378	0.327	0.296
COR-L23	0.884	0.781	0.725	0.612	0.802	0.982	0.81	0.692	0.753	0.857	1.01	0.927	0.925	0.87	0.753	0.22	0.173	0.247	0.197	0.233
COR-L 105	0.657	0.576	0.788	0.635	0.722	0.397	0.362	0.379	0.401	0.4	0.931	0.939	1.04	0.985	1.01	0.355	0.37	0.367	0.361	0.378
Calu-6	–	–	–	–	–	0.903	1.01	0.955	0.974	0.838	1.08	0.976	0.911	0.926	0.969	–	–	–	–	–
ChaGo-K-1	0.641	0.555	0.519	0.556	0.382	0.645	0.669	0.673	0.851	0.711	–	–	–	–	–	0.238	0.198	0.205	0.205	0.244
EBC-1	–	–	–	–	–	0.511	0.333	0.439	0.391	0.499	1.04	0.878	0.796	0.945	0.915	–	–	–	–	–
EKVX	0.691	0.682	0.684	0.721	0.539	0.419	0.45	0.438	0.413	0.399	1.15	0.956	0.891	1.01	0.927	0.458	0.44	0.34	0.446	0.389
EMC-BAC-2	0.408	0.397	0.386	0.363	0.343	0.514	0.566	0.522	0.555	0.349	0.912	0.821	0.825	0.823	0.8	0.303	0.29	0.303	0.337	0.302
EPLC-272H	0.298	0.258	0.258	0.283	0.294	0.354	0.321	0.291	0.312	0.104	1.29	1.07	1.13	1.31	1.37	0.351	0.365	0.203	0.273	0.325
H3255	0.544	0.633	0.595	0.567	0.655	0.482	0.462	0.4	0.49	0.439	0.95	0.899	0.948	1.04	0.911	0.59	0.705	0.655	0.604	0.864
HARA	0.633	0.524	0.513	0.522	0.48	0.356	0.471	0.384	0.38	0.707	1.01	1.08	0.937	1.06	0.957	0.105	0.107	0.102	0.111	0.117
HCC-15	0.75	0.675	0.627	0.63	0.65	0.839	0.766	0.635	0.804	0.636	0.978	0.874	0.788	0.897	0.878	0.462	0.458	0.422	0.441	0.45
HCC-44	–	0.651	0.5	0.55	0.601	0.649	0.636	0.548	0.649	0.766	0.708	0.66	0.664	0.702	0.698	–	0.853	0.999	1.03	0.873
HCC-78	0.436	0.368	0.417	0.346	0.348	0.206	0.178	0.221	0.219	0.118	0.614	0.543	0.496	0.469	0.399	0.41	0.345	0.469	0.488	0.349
HCC-366	0.989	0.932	0.89	0.861	0.948	0.142	0.139	0.165	0.219	0.203	0.557	0.578	0.678	0.603	0.648	0.152	0.0806	0.188	0.113	0.125

Cell Line	relative viability ([1]; first compound 0.08 µM)	relative viability ([1]; first compound 0.253 µM)	relative viability ([1]; first compound 0.8 µM)	relative viability ([1]; first compound 2.53 µM)	relative viability ([1]; first compound 8 µM)	relative viability ([2]; first compound 0.08 µM)	relative viability ([2]; first compound 0.253 µM)	relative viability ([2]; first compound 0.8 µM)	relative viability ([2]; first compound 2.53 µM)	relative viability ([2]; first compound 8 µM)	relative viability ([3]; first compound 0.08 µM)	relative viability ([3]; first compound 0.253 µM)	relative viability ([3]; first compound 0.8 µM)	relative viability ([3]; first compound 2.53 µM)	relative viability ([3]; first compound 8 µM)	relative viability ([4]; first compound 0.08 µM)	relative viability ([4]; first compound 0.253 µM)	relative viability ([4]; first compound 0.8 µM)	relative viability ([4]; first compound 2.53 µM)	relative viability ([4]; first compound 8 µM)
HCC-827	0.804	0.764	0.754	0.798	0.843	1.09	1.07	0.801	1.02	0.992	1.01	0.912	0.934	0.935	0.927	0.448	0.397	0.418	0.448	0.432
HOP-62	0.843	0.817	0.67	0.807	0.836	0.842	0.707	0.651	0.723	0.691	0.992	0.893	1.01	1	0.926	0.458	0.381	0.384	0.403	0.363
IA-LM	–	–	–	–	–	0.302	0.312	0.283	0.347	0.322	0.822	0.68	0.472	0.755	0.568	–	–	–	–	–
LC-2-ad	0.936	0.855	0.626	0.906	0.723	0.429	0.476	0.532	0.405	0.423	0.623	0.839	0.861	0.805	0.918	0.518	0.476	0.376	0.519	0.325
LCLC-97TM1	0.535	0.432	0.496	0.474	0.515	–	0.239	–	0.149	0.222	–	0.194	–	0.196	0.18	0.279	0.203	0.196	0.338	0.221
LCLC-103H	0.475	0.485	0.444	0.463	0.517	0.662	0.625	0.489	0.615	0.705	1.2	1.04	1	1.15	1.09	0.514	0.504	0.457	0.477	0.501
LK-2	0.21	0.202	0.189	0.211	0.202	0.677	0.522	0.613	0.541	0.552	0.797	0.724	0.551	0.573	0.472	0.174	0.189	0.18	0.178	0.148
LOU-NH91	0.736	0.751	0.713	0.668	0.733	0.57	0.523	0.539	0.486	0.524	0.991	0.988	0.957	0.973	0.891	0.77	0.667	0.681	0.748	0.734
NCI-H522	0.683	0.623	0.565	0.724	0.592	–	–	–	–	–	–	–	–	–	–	0.583	0.556	0.609	0.539	0.631
NCI-H1299	–	–	–	–	–	0.755	0.823	0.821	0.87	0.623	1.04	0.98	0.937	0.955	0.986	–	–	–	–	–
NCI-H1563	0.786	0.732	0.818	0.77	0.727	0.623	0.638	0.653	0.626	0.701	1.35	1.16	1.29	1.28	1.21	–	–	–	–	–
NCI-H1623	0.466	0.391	0.419	0.468	0.438	–	–	–	–	–	–	–	–	–	–	0.432	0.416	0.458	0.506	0.428
NCI-H1648	0.259	0.251	0.263	0.253	0.185	–	–	–	–	–	–	–	–	–	–	0.432	0.422	0.615	0.533	0.507
NCI-H1650	0.718	0.542	0.667	0.651	0.65	0.645	0.587	0.529	0.648	0.596	–	–	–	–	–	0.4	0.347	0.45	0.407	0.231
NCI-H1703	–	–	–	–	–	0.264	0.232	0.265	0.246	0.197	0.865	–	0.821	0.371	0.959	–	–	–	–	–
NCI-H1792	0.866	0.669	0.726	0.689	0.629	0.304	0.26	0.295	0.286	0.302	0.667	0.48	0.619	0.592	0.565	–	–	–	–	–
NCI-H2170	0.958	0.676	0.666	0.756	0.689	0.315	0.4	0.312	0.306	0.308	–	–	–	–	–	0.678	0.714	0.753	0.774	0.638
NCI-H2342	0.529	0.657	0.603	0.563	0.674	–	–	–	–	–	–	–	–	–	–	0.52	0.576	0.566	0.465	0.569
SW 900	0.55	0.554	0.608	0.517	0.424	–	–	–	–	–	–	–	–	–	–	0.566	0.559	0.536	0.599	0.469
